Experiment [1] relates to Human ESCs (H9). The experiment is described as follows: Mesoderm formation during cardiac differentiation of hESCs (brachyury (T)+ cells). In kind it is cell-based. The source says:
(§1) Human ESCs (H9) were differentiated to cardiac lineage by treatment with Activin A, BMP4 and bFGF (ABF, control group) for two days (day 1-2) Mesoderm formation was identified by brachyury (T)+ cells, and the ensuing pan-cardiac myocyte lineage was marked by cTnT+ cells. In control, this process was highly efficient, reaching 75% and 82%, respectively. […] In contrast, late (day 6-9) activation of RA (Late-RA) led to >90% cTnT+ population. […] Furthermore, the Late-RA cardiomyocytes expressed higher transcript and protein levels of the first heart field (FHF) markers, NKX2.5, TBX5 and HCN4.

Experiment [2] has as its system Human ESCs (H9). Kind of experiment: Pan-cardiac myocyte lineage formation from hESCs (cTnT+ cells). In kind it is cell-based.
Description: as §1

The subject of experiment [3] is Human ESCs (H9). The experiment is described as follows: Chamber and heart field marker expression in hESC-derived cardiomyocytes. In kind it is cell-based.
Description: IRX4 and HRT2 are ventricular marker. CoupTFII is an atrial marker. NKX2.5, TBX5, HCN4 are markers of the first heart field, which becomes the left ventricular and atrial cardiac myocytes.
Is11, Mef2c, Fgf8, and Fgf10 are markers of the second heart field, which become right ventricular cardiac myocytes.
as §1
Reported are specific and robust derivation of the left ventricular-like cells by activating RA signaling during the late stage of hESC differentiation.

Another experiment relates to hESCs. The experiment is described as follows: Differentiation protocols of hESCs to cardio-like cell subtypes (AFB, AFB+RA, Ri+AFB+RA). In kind it is cell-based, human. As to the method: To create the cardio-like cells from hESCs, at the early stage (day 0-3), hESCs were treated with ActivinA, bFGF and BMP4 to induce mesoderm and cardiac mesoderm cells generation. […] Wnt inhibitor promoted cardiac progenitor cells into cardio-like cells during day 5-11.
To create atrial-like cells from hESCs, at the early stage (day 0-3), hESCs were treated with ActivinA, bFGF and BMP4 to induce mesoderm and cardiac mesoderm cells generation. […] Wnt inhibitor promoted differentiation of cardiac progenitor cells into cardio-like cells during day 5-11.
To create first heart field (FHF) derived left ventricular-like cells from hESCs, at the early stage (day 0-3), hESCs were treated with ActivinA, bFGF, BMP4 and additional short time (day 0-1) treatment of BMS4.93(Ri) to induce mesoderm and cardiac mesoderm cells generation. […] Wnt inhibitor promoted cardiac progenitor cells into cardiomyocytes during day 5-11.

The mark [4] stands for this setting: early inhibition of RA signaling.
The mark [5] stands for this setting: Late-RA cardiomyocytes compared to control.

With `CC1(C)CC=C(C#Cc2ccccc2)c2cc(/C=C/c3ccc(C(=O)O)cc3)ccc21` [BMS-189493, (E)-4-(2-(5,5-dimethyl-8-(phenylethynyl)-5,6-dihydronaphthalen-2-yl)vinyl)benzoic acid], in the experiment with Human ESCs (H9) [1] (setting [4]), the Mesoderm induction result was “increased mesoderm induction”. Moreover, the “Mesodermal cells that failed to become cardiac myocytes” value in the experiment on Human ESCs (H9) [2] (setting [4]) stood at 86%.

`CC(C=CC1=C(C)CCCC1(C)C)=CC=CC(C)=CC(=O)O` [RA, 3,7-dimethyl-9-(2,6,6-trimethylcyclohexen-1-yl)nona-2,4,6,8-tetraenoic acid]: the “Generation of mesoderm lineage” value in the experiment with Human ESCs (H9) [1] (early activation of RA) was “failed to generate mesoderm lineage”. In the experiment with Human ESCs (H9) [3] (Late-RA cardiomyocytes), the “First heart field marker HCN4 transcript and protein levels” value is “higher”; the “First heart field marker NKX2.5 transcript and protein levels” value is reported as “higher”; the “First heart field marker TBX5 transcript and protein levels” value is “higher”. In the experiment on Human ESCs (H9) [3] (setting [5]), the “Atrial marker CoupTFII expression” value is “down-regulated”, the “Second heart field marker FGF8 expression” value is listed as “downregulated”, the “Second heart field marker FGF10 expression” value was “downregulated” and the “Second heart field marker ISL1 expression” value is “downregulated”. Besides, in the experiment on Human ESCs (H9) [3] (setting [5]), the “Ventricular marker HRT2 expression” value is on record as “up-regulated” and the “Ventricular marker IRX4 expression” value is on record as “up-regulated”. Moreover, the “cTnT+ population” value in the experiment on Human ESCs (H9) [2] (late (day 6-9) activation of RA (Late-RA)) is given as above 90%. Further, the Cell subtype specified result in the experiment on hESCs (AFB+RA protocol, RA during day 5-8, no early RA inhibitor) is given as “specified atria-like subtypes”. For the same molecule, the Cell subtype specified entry in the experiment on hESCs (Ri+AFB+RA protocol, RA during day 5-8 after Ri day 0-1) was “specified first heart field (FHF) derived left ventricular-like cell subtypes”.

B1: Noggin: secreted protein that binds and inactivates TGF-beta superfamily signaling proteins (protein, UniProt Q13253 28-232, looked up)
Noggin: QHYLHIRPAPSDNLPLVDLIEHPDPIFDPKEKDLNETLLRSLLGGHYDPGFMATSPPEDRPGGGGGAAGGAEDLAELDQLLRQRPSGAMPSEIKGLEFSEGLAQGKKQRLSKKLRRKLQMWLWSQTFCPVLYAWNDLGSRFWPRYVKVGSCFSKRSCSVPEGMVCKPSKSVHLTVLRWRCQRRGGQRCGWIPIQYPIISECKCSC
Take B1: the “Effect on cardiac lineage cells” value in the experiment with hESCs (Noggin treatment during day 3-5) is recorded as “expanded more cardiac lineage cells”.

Values taken from patent US20190136191A1, “Methods of Producing Specialized Cardio-Like Cells from Stem Cells” (Emory University, priority 2016, published 2019).
